Experimental data: patent publication US6419941B1, “Polyol ester insecticides and method of synthesis” (AVA Chemical Ventures L.L.C., priority 2000, dated 2002)
“Also recorded” adds a separate entry of the source.

Experiments:
Type in all cases: in vivo
[1] = tested on: tobacco aphid; assay: effectiveness against tobacco aphid; settings: comparison in words, FIG. 9-11
Experimental: (§1) The chain lengths were systematically varied to determine if the chain length was critical as to the effectiveness as insecticides. The compounds were tested against pear psylla, tobacco hornworms, tobacco aphids and two-spotted spider mites.

[2] = tested on: two-spotted spider mite; assay: effectiveness against two-spotted spider mite; settings: comparison in words, FIG. 12
Experimental: as §1

[3] = insecticidal activity, insect not specified; settings: general statement, insect not named
[4] = tested on: pear psylla; assay: kill of pear psylla by polyol esters; settings: comparison in words, FIG. 1, 6, 7
Experimental: as §1

Substance | effectiveness against tobacco aphid [1] | effectiveness against two-spotted spider mite [2] | effectiveness as insecticide / insecticidal activity [3] | effectiveness (kill data) on pear psylla [4] | effectiveness (kill data) on pear psylla ([4]; listed as C10 acid ester)
D-Glucitol, decanoate [sorbitol decanoate] | more effective than xylitol laurate; also recorded: better than a commercially available insecticidal soap product | marginally more effective than the others |  |  | 
D-Glucitol, octanoate [sorbitol octanoate] | more effective than sorbitol decanoate |  | more effective as insecticides | the most effective | 
Xylitol dodecanoate [xylitol laurate] | more effective than xylitol decanoate; also recorded: better than a commercially available insecticidal soap product |  |  |  | 
sucrose octanoate |  |  | the monoesters were more effective as insecticides than the diesters and triesters | monoesters that are more effective as insecticides than the diesters and triesters | 
Xylitol decanoate |  |  | the most effective for xylitol | most effective | the most effective
sucrose stearate [commercial sucrose stearate product] |  |  | does not have insecticidal activity |  | 
